Data published in patent publication US5391540A, “Substituted pyridine compounds” (Rohm and Haas Company, priority 1993, dated 1995).

Tests used:
Experiment in all cases: Pre-emergent herbicidal activity (Table A)
Assay type in all cases: in vivo
Annual Bluegrass = conditions: pre-emergence, Anbg, 11.2 kg/ha, 10-14 days, read-out: herbicidal rating (% inhibition)
Protocol: (§1) Tables A and B summarize results of tests conducted to determine the pre-emergent herbicidal activity of the compounds of this invention. The herbicidal ratings used in Tables A and B were assigned according to a scale based on the percent inhibition of each plant species. The herbicide rating symbols in Tables A and B are defined as follows: […]
(§2) One set of pre-emergent tests was conducted as follows:
(§3) Topsoil was placed in a pan and compacted to a depth of 0.95 to 1.27 cm. from the top of the pan. A predetermined number of seeds of each of several monocotyledonous and dicotyledonous annual plant species and/or vegetative propagules of various perennial plant species were placed on top of the soil. The soil required to level fill a pan after seeding or adding vegetative propagules was weighed into another pan. A known amount of the test compound dissolved or suspended in an organic solvent or water and applied in acetone or water as a carrier was thoroughly mixed with this cover soil, and the herbicide/soil mixture was used as a cover layer for the previously prepared pan. In Table A below the amounts of active ingredient were all equivalent to an application rate of 11.2 kilograms/hectare (kg/ha). After treatment, the pans were moved to a greenhouse bench where they were watered as needed to give adequate moisture for germination and growth.
(§4) Approximately 10-14 days (usually 11 days) after planting and treating, the plants were observed and the results recorded.
(§5) The plant species usually regarded as weeds which were utilized in one set of pre-emergent activity tests, the data for which are shown in Table A, are identified by letter headings printed diagonally above the columns according to the following legend: […]

Indian Mustard = conditions: Brassica juncea, pre-emergence, Inmu, 11.2 kg/ha, 10-14 days, read-out: herbicidal rating (% inhibition)
Protocol: as §1, §2, §3, §4, §5

Seedling Johnsongrass = conditions: Sorghum halepense, pre-emergence, Sejg, 11.2 kg/ha, 10-14 days, read-out: herbicidal rating (% inhibition)
Protocol: as §1, §2, §3, §4, §5

Wild Buckwheat = conditions: Fallopia convolvulus, pre-emergence, Wibw, 11.2 kg/ha, 10-14 days, read-out: herbicidal rating (% inhibition)
Protocol: as §1, §2, §3, §4, §5

Barnyardgrass = conditions: Echinochloa crus-galli, pre-emergence, Bygr, 11.2 kg/ha, 10-14 days, read-out: herbicidal rating (% inhibition)
How it was run: (§6)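 Seeds or perennial propagules set on compacted topsoil, then covered with soil mixed with a known amount of test compound applied in acetone or water carrier. Ratings assigned on a scale based on percent inhibition of each species.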

Cocklebur = conditions: Xanthium strumarium, pre-emergence, Cobu, 11.2 kg/ha, 10-14 days, read-out: herbicidal rating (% inhibition)
How it was run: as §6

Downy Brome = conditions: Bromus tectorum, pre-emergence, Dobr, 11.2 kg/ha, 10-14 days, read-out: herbicidal rating (% inhibition)
How it was run: as §6

Morningglory = conditions: Ipomoea, pre-emergence, Mogl, 11.2 kg/ha, 10-14 days, read-out: herbicidal rating (% inhibition)
How it was run: as §6

Velvetleaf = conditions: Abutilon theophrasti, pre-emergence, Vele, 11.2 kg/ha, 10-14 days, read-out: herbicidal rating (% inhibition)
How it was run: as §6

Yellow Nutsedge = conditions: Cyperus, pre-emergence, Yens, 11.2 kg/ha, 10-14 days, read-out: herbicidal rating (% inhibition)
How it was run: as §6

Canada thistle = conditions: Cirsium arvense, pre-emergence, Cath, 11.2 kg/ha, 10-14 days, read-out: herbicidal rating (% inhibition)
How it was run: as §6

Common Lambsquarters = conditions: Chenopodium album, pre-emergence, Colq, 11.2 kg/ha, 10-14 days, read-out: herbicidal rating (% inhibition)
How it was run: as §6

Pennsylvania Smartweed = conditions: pre-emergence, Pesw, 11.2 kg/ha, 10-14 days, read-out: herbicidal rating (% inhibition)
How it was run: as §6

Quackgrass = conditions: pre-emergence, Rhqg, 11.2 kg/ha, 10-14 days, read-out: herbicidal rating (% inhibition)
How it was run: as §6

Rhizome Johnsongrass = conditions: Sorghum halepense, pre-emergence, Rhjg, 11.2 kg/ha, 10-14 days, read-out: herbicidal rating (% inhibition)
How it was run: as §6

Row | Structure (SMILES) | inhibition at 11200 g/ha (Annual Bluegrass) | inhibition at 11200 g/ha (Indian Mustard) | inhibition at 11200 g/ha (Seedling Johnsongrass) | inhibition at 11200 g/ha (Wild Buckwheat) | inhibition at 11200 g/ha (Barnyardgrass) | inhibition at 11200 g/ha (Cocklebur) | inhibition at 11200 g/ha (Downy Brome) | inhibition at 11200 g/ha (Morningglory) | inhibition at 11200 g/ha (Velvetleaf) | inhibition at 11200 g/ha (Yellow Nutsedge) | inhibition at 11200 g/ha (Canada thistle) | inhibition at 11200 g/ha (Common Lambsquarters) | inhibition at 11200 g/ha (Pennsylvania Smartweed) | inhibition at 11200 g/ha (Quackgrass) | inhibition at 11200 g/ha (Rhizome Johnsongrass)
1 | COC(=O)c1c(OC)nc(C(F)(F)F)c(C(N)=O)c1CC(C)C [Compound 105, 3-pyridinecarboxylic acid, 5-(aminocarbonyl)-2-methoxy-4-(2-methylpropyl)-6-(trifluoromethyl)-, methyl ester] | 75 to 100% | 0 to 24% | 75 to 100% | 25 to 49% | 75 to 100% | 0 to 24% | 0 to 24% | 0 to 24% | 0 to 24% | 0 to 24% |  |  |  |  | 
2 | COC(=O)c1c(OC)nc(C(F)(F)F)c(C(=O)n2cncn2)c1C1CCC1 [Compound 141] | 75 to 100% | 75 to 100% | 75 to 100% | 75 to 100% | 75 to 100% | 0 to 24% | 75 to 100% | 75 to 100% | 75 to 100% | 50 to 74% |  |  |  |  | 
3 | COc1nc(C(F)(F)F)c(CO)c(CC(C)C)c1C(=O)SC [Compound 134, 3-pyridinecarbothioic acid, 5-(hydroxymethyl)-2-methoxy-4-(2-methylpropyl)-6-(trifluoromethyl)-, S-methyl ester] | 75 to 100% | 25 to 49% | 0 to 24% | 0 to 24% | 75 to 100% | 0 to 24% | 0 to 24% | 0 to 24% | 50 to 74% | 0 to 24% |  |  |  |  | 
4 | COC(=O)c1c(OC)nc(C(F)(F)F)c(NC(=O)CCCBr)c1CC(C)C [Compound 120, 3-pyridinecarboxylic acid, 5-[(4-bromo-1-oxobutyl)amino]-2-methoxy-4-(2-methylpropyl)-6-(trifluoromethyl)-, methyl ester] | 75 to 100% |  | 75 to 100% |  | 75 to 100% | 75 to 100% | 75 to 100% | 75 to 100% | 75 to 100% | 50 to 74% |  |  |  |  | 
5 | COC(=O)c1c(OC)nc(C(F)(F)F)c(C(=O)N2CCOCC2)c1CC(C)C [Compound 69, 3-pyridinecarboxylic acid, 2-methoxy-4-(2-methylpropyl)-5-(4-morpholinyl)carbony1-6-(trifluoromethyl)-, methyl ester] |  |  |  |  | 75 to 100% | 0 to 24% | 25 to 49% | 25 to 49% | 0 to 24% | 0 to 24% | 50 to 74% | 75 to 100% | 0 to 24% | 75 to 100% | 50 to 74%
6 | COC(=O)c1c(OC)nc(C(F)(F)F)c(C(=O)SC)c1CC(C)C [Compound 34, 3-pyridinecarboxylic acid, 2-methoxy-4-(2-methylpropyl)-5-[(methylthio)carbonyl]-6-(trifluoromethyl)-, methyl ester] |  |  |  |  | 75 to 100% | 75 to 100% | 75 to 100% | 75 to 100% | 50 to 74% | 75 to 100% | 75 to 100% | 75 to 100% | 75 to 100% | 75 to 100% | 75 to 100%
7 | CCOc1nc(C(F)(F)F)c(C(=O)SC)c(CC(C)C)c1C(=O)OC [Compound 45, 3-pyridinecarboxylic acid, 2-ethoxy-4-(2-methylpropyl)-5-[(methylthio)carbonyl]-6-(trifluoromethyl)-, methyl ester] |  |  |  |  | 75 to 100% | 0 to 24% | 75 to 100% | 75 to 100% | 75 to 100% | 75 to 100% | 75 to 100% | 75 to 100% | 75 to 100% | 75 to 100% | 75 to 100%
8 | COC(=O)c1c(OC)nc(C(F)(F)F)c(C(=O)NCCO)c1CC(C)C [Compound 38, 3-pyridinecarboxylic acid, 5-[[(2-hydroxyethyl)amino]carbonyl]-2-methoxy-4-(2-methylpropyl)-6-(trifluoromethyl)-, methyl ester] |  |  |  |  | 0 to 24% | 0 to 24% | 0 to 24% | 0 to 24% | 0 to 24% | 0 to 24% | 0 to 24% | 0 to 24% | 0 to 24% | 0 to 24% | 0 to 24%
9 | COc1nc(C(F)(F)F)c(C(=O)SC)c(CC(C)C)c1C(=O)SC [Compound 47, 3,5-pyridinedicarbothioic acid, 2-methoxy-4-(2-methylpropyl)-6-(trifluoromethyl)-, S,S,-dimethyl ester] |  |  |  |  | 75 to 100% | 25 to 49% | 75 to 100% | 75 to 100% | 75 to 100% | 75 to 100% | 75 to 100% | 75 to 100% | 75 to 100% | 75 to 100% | 75 to 100%
10 | COc1nc(C(F)(F)F)c(C(=O)n2cccn2)c(C2CCC2)c1C(=O)n1cccn1 [Compound 59, 4-cyclobuty1-2-methoxy-3,5-bis(1H-pyrazo1-1-ylcarbonyl)-6-(trifluoromethyl)-pyridine] |  |  |  |  | 75 to 100% | 0 to 24% | 75 to 100% | 75 to 100% | 50 to 74% | 0 to 24% | 0 to 24% | 75 to 100% | 75 to 100% | 75 to 100% | 0 to 24%
11 | COC(=O)c1c(OC)nc(C(F)(F)F)c(C2=NC(C)CS2)c1CC(C)C (stereo not drawn) [Compound 74, 3-pyridinecarboxylic acid, 5-(4,5-dihydro-4-methy1-2-thiazolyl)-2-methoxy-4-(2-methylpropyl)-6-(trifluoromethyl)-, methyl ester] |  |  |  |  | 75 to 100% | 75 to 100% | 75 to 100% | 75 to 100% | 75 to 100% | 25 to 49% | 75 to 100% | 75 to 100% | 75 to 100% | 75 to 100% | 75 to 100%
12 | COC(=O)c1c(OC)nc(C(F)(F)F)c(C(=O)OC)c1C1CC1 [Compound 9, 3,5-pyridinedicarboxylic acid, 4-cyclopropy1-2-methoxy-6-(trifluoromethyl)-, dimethyl ester] |  |  |  |  | 75 to 100% | 0 to 24% | 75 to 100% | 75 to 100% | 75 to 100% | 75 to 100% | 75 to 100% | 75 to 100% | 75 to 100% | 75 to 100% | 75 to 100%
